# Measurements from publication PMC4274170 (Toxicology letters, 2014).
# Where two headings read alike, the source gives them in different places.
# What was measured:
# [1] = In vitro metabolism
# [2] = in vitro; conditions: female, B6129SF1/J, mouse, pH 7.4
# [3] = in vitro; conditions: female, human, pH 7.4, Km
# [4] = in vitro; conditions: male, Sprague-Dawley, rat, pH 7.4
# [5] = mouse, microsomes
# [6] = human
# [7] = rat, microsomes
# [8] = In vitro metabolism; remark: listed apart in the source
# [9] = In vitro metabolism; conditions: female human
# [10] = In vitro metabolism; format: in vitro ADME, mouse
# [11] = tested on: humans; conditions: ref WHO, 2010, 2012; cited from earlier work
# [12] = pregnant relative to naïve female mice
compound,measurement,setting,value
"c1ccc2c(c1)cc1ccc3cccc4ccc2c1c34 [B[a]P, benzo[a]pyrene]",KM in male rats exceeded that in female mice,[1]; male rat relative to female mouse,3.6 fold
same,Km,[2],4.97 ± 1.96 µM
same,Km,[3],0.73 µM
same,Km,[4],18 ± 12.9 µM
same,"B[a]P CLINT exceeded DBC CLINT, margin (in vitro half-life method)","[5]; female, B6129SF1/J, pH 7.4",10.6 fold
same,"CLINT for B[a]P exceeded that of DBC, margin (Michaelis-Menten regressions)","[5]; female, B6129SF1/J, pH 7.4",9.0 fold
same,"Organism level CLINT, MM",[5],1445.2 ± 778.0 ml/min/kg body weight
same,"Organism level CLINT, t 1/2",[5],2699.0 ± 1803.4 ml/min/kg body weight
same,"Tissue level CLINT, t 1/2",[5],48.53 ± 32.79 ml/min/g tissue
same,"B[a]P CLINT exceeded DBC CLINT, margin (in vitro half-life method)","[6]; female, microsomes, pH 7.4",13.3 fold
same,"CLINT for B[a]P exceeded that of DBC, margin (Michaelis-Menten regressions)","[6]; female, microsomes, pH 7.4",3.3 fold
same,Km,"[6]; female, pH 7.4",0.725 ± 0.581 µM
same,"Organism level CLINT, MM",[6]; microsomes,27.16 ± 29.98 ml/min/kg body weight
same,"Organism level CLINT, t 1/2",[6]; microsomes,54.69 ml/min/kg body weight
same,"Tissue level CLINT, t 1/2",[6]; microsomes,2.13 ml/min/g tissue
same,"B[a]P CLINT exceeded DBC CLINT, margin (in vitro half-life method)","[7]; male, Sprague-Dawley, pH 7.4",1.4 fold
same,"CLINT for B[a]P exceeded that of DBC, margin (Michaelis-Menten regressions)","[7]; male, Sprague-Dawley, pH 7.4",2.6 fold
same,"Organism level CLINT, MM",[7],65.90 ± 71.68 ml/min/kg body weight
same,"Organism level CLINT, t 1/2",[7],51.34 ± 22.19 ml/min/kg body weight
same,"Tissue level CLINT, t 1/2",[7],1.40 ± 0.61 ml/min/g tissue
"c1ccc2c(c1)cc1ccc3cccc4c5ccccc5c2c1c34 [DBC, dibenzo[def,p]chrysene]",Vmax,"[1]; male rat liver microsomes, Michaelis-Menten regression of substrate depletion",0.167 ± 0.064 nmol/min/mg MSP
same,"Tissue level CLINT, MM","[1]; male rat, Michaelis-Menten method (Vmax/Km scaled)",0.69 ± 0.73 ml/min/g tissue
same,"Organism level CLINT, MM","[1]; male rat, Michaelis-Menten method, liver weight 36.6 g per kg body weight",25.14 ± 26.85 ml/min/kg body weight
same,"Tissue level CLINT, t 1/2","[1]; male rat, in vitro half-life method",1.01 ± 0.30 ml/min/g tissue
same,"Organism level CLINT, t 1/2","[1]; male rat, in vitro half-life method, liver weight 36.6 g per kg body weight",37.05 ± 10.96 ml/min/kg body weight
same,Km,"[1]; male, Sprague-Dawley, rat, pH 7.4",7.28 ± 4.99 µM
same,Km,"[8]; female, B6129SF1/J, mouse, pH 7.4",6.63 ± 1.01 µM
same,Vmax,"[8]; naïve mouse liver microsomes, Michaelis-Menten regression of substrate depletion",0.646 ± 0.055 nmol/min/mg MSP
same,"Tissue level CLINT, MM","[8]; naïve mouse, Michaelis-Menten method (Vmax/Km scaled)",2.92 ± 0.71 ml/min/g tissue
same,"Organism level CLINT, MM","[8]; naïve mouse, Michaelis-Menten method, liver weight 55 g per kg body weight",160.71 ± 38.94 ml/min/kg body weight
same,"Tissue level CLINT, t 1/2","[8]; naïve mouse, in vitro half-life method",4.59 ± 0.53 ml/min/g tissue
same,"Organism level CLINT, t 1/2","[8]; naïve mouse, in vitro half-life method, liver weight 55 g per kg body weight",252.18 ± 29.26 ml/min/kg body weight
same,"Tissue level CLINT, MM",[9]; Michaelis-Menten method (Vmax/Km scaled),0.32 ± 0.46 ml/min/g tissue
same,"Organism level CLINT, MM","[9]; Michaelis-Menten method, liver weight 25.7 g per kg body weight",8.19 ± 11.73 ml/min/kg body weight
same,"Tissue level CLINT, t 1/2",[9]; in vitro half-life method,0.16 ml/min/g tissue
same,"Organism level CLINT, t 1/2","[9]; in vitro half-life method, liver weight 25.7 g per kg body weight",4.23 ml/min/kg body weight
same,Km,"[10]; female, B6129SF1/J, mouse, liver microsomes of pregnant (GD17) mice, pH 7.4",3.28 ± 1.38 µM
same,"Tissue level CLINT, MM","[10]; pregnant mouse, Michaelis-Menten method (Vmax/Km scaled)",3.81 ± 2.28 ml/min/g tissue
same,"Organism level CLINT, MM","[10]; pregnant mouse, Michaelis-Menten method, liver weight 41.8 g per kg body weight",159.43 ± 95.51 ml/min/kg body weight
same,"Tissue level CLINT, t 1/2","[10]; pregnant mouse, in vitro half-life method",3.31 ± 1.75 ml/min/g tissue
same,KM reduced in the pregnant animal,[10]; [12],51%
same,VMAX reduced in the pregnant animal,[10]; [12],35%
same,higher tissue level CLINT in the pregnant animal (Michaelis-Menten regression method),[10]; [12],30%
same,tissue level CLINT lower in the pregnant animal (in vitro half-life method),[10]; [12],28%
same,IARC classification,[11],Group 2A
